Experiments:
[1] = depends on administration form and/or dosage; cited from earlier work
[2] = test system: platelet aggregation in whole blood; experiment: Whole blood platelet aggregation (Multiplate) during Flolan infusion; type: in vivo, human; details: 6 healthy volunteers, 4 ng/kg/min IV, after 60 and 120 min infusion
Procedure: Six healthy volunteers were administered flolan (prostacyclin) intravenously at a dose of 4 ng/kg/min for 2 h. Blood samples for whole blood viscoelastical assay (Thrombelastography [TEG]) and whole blood platelet aggregation (Multiplate) was obtained before infusion of Flolan, after 60 min infusion of Flolan and after 120 min infusion of Flolan.
Whole blood impedance aggregometry analyzed by the Multiple Platelet function Analyzer (MultiPlate® analyzer). Analysis employing various platelet agonists: ASPItest (activation by arachidonic acid), COLtest (activation by collagen through the collagen receptor), TRAPtest (activation by TRAP-6 stimulates the thrombin receptor on the platelet surface and ADPtest (activation by ADP stimulates platelet activation by the ADP receptors).
MultiPlate continuously records platelet aggregation. The increase of impedance by the attachment of platelets onto the Multiplate sensors is transformed to arbitrary aggregation units (AU) and plotted against time as depicted in FIG. 2.

[3] = test system: whole blood haemostatic activity; experiment: Whole blood viscoelastical assay (TEG) during Flolan infusion; type: in vivo, human; details: 6 healthy volunteers, 4 ng/kg/min IV, after 60 and 120 min infusion
Excerpt: The TEG analyzer uses a small whole blood sample in a rotating cup and a pin suspended in the blood by a torsion wire, which is monitored for motion. To speed up the clot formation, a standardized amount of an activator of coagulation (e.g. Kaolin, tissue factor) may be added to the cup just before the pin is placed in the cup. The torque of the rotating cup is transmitted to the immersed pin only after fibrin and/or fibrin-platelet bonding has linked the cup and pin together. The strength and rate of these bonds affect the magnitude of the pin motion such that strong clots move the pin directly in phase with cup motion. Thus, the TEG technology documents the interaction of platelets with the protein coagulation cascade from the time of placing the blood in the analyzer until initial fibrin formation, clot rate strengthening and fibrin-platelet bonding via GPIIb/IIIa, through eventual clot lysis. […]
With regard to the TEG assay this was performed as recommended by the manufacturer and 340 μl are mixed with 20 μl CaCl 0.2 M (final concentration 11.1 mM in the cup) and kaolin at 37° C. after which the haemostatic activity is recorded as depicted in FIG. 1.

[4] = test system: critically ill patients admitted to the ICU; experiment: Retrospective review of haemofiltration with or without Flolan in the filters; type: in vivo, human
Procedure: Ninety-four critically ill patients admitted to the intensive care unit (ICU) underwent haemofiltration with or without concomitant Flolan (prostacyclin) treatment. Flolan was administered in a low dose of 4-6 ng/kg/min in the filters to prevent these from clotting and consequently there was only a minor spill over of Flolan to the systemic circulation. The patients were retrospectively reviewed.

[5] = test system: patients with severe sepsis; details: cited from earlier work
[6] = Flolan 4-6 ng/kg/min in the filters, n = 24

Compound: CC#CCC(C)[C@H](O)/C=C/[C@@H]1[C@H]2c3cccc(CCCC(=O)O)c3O[C@H]2C[C@H]1O (mixture of isomers) [Beraprost]
- half time [1]: 35 to 40 min

Compound: CCCCC[C@H](O)/C=C/[C@@H]1[C@H]2C/C(=C/CCCC(=O)O)O[C@H]2C[C@H]1O [Flolan, prostacyclin]
- half time [1]: 0.5 to 3 min
- Multiplate values (ASPI, COL, ADP, TRAP) vs baseline [2]: no significant difference
- TEG values (R, Angle, MA) vs baseline [3]: No significant difference
- 90 day survival (%) [4, 6]: 67%
- Platelet count (difference before vs. after haemofiltration) [4, 6]: +14
- haemostatic competence as evaluated by transfusion requirements ([4]; critically ill patients undergoing haemofiltration): does not negatively influence
- mortality at 30 days ([4]; vs. 39% non-flolan, p=0.12): 21%
- mortality at 90 days ([4]; vs. 53% non-flolan, p=0.10): 34%
- mortality at 365 days ([4]; vs. 57% non-flolan, p=0.09): 38%

Compound: CC#CCC(C)[C@H](O)/C=C/[C@@H]1[C@H]2C/C(=C/CCCC(=O)O)C[C@H]2C[C@H]1O (some centres unmarked) [Iloprost]
- half time [1]: 20 to 30 min

Compound: CSCCNc1nc(SCCC(F)(F)F)nc2c1ncn2[C@@H]1O[C@H](COP(=O)(O)OP(=O)(O)C(Cl)(Cl)P(=O)(O)O)[C@@H](O)[C@H]1O [cangrelor]
- half time [1]: 3 to 5 min

Compound: Tifacogin: recombinant tissue factor pathway inhibitor
- All cause mortality ([5]; 1754 patients, severe sepsis, vs 33.9% placebo, p=0.88): 34.2%
- risk of bleeding ([5]; in vivo): increase in risk of bleeding

— US9381243B2, “Methods of identifying critically ill patients at increased risk of development of organ failure and compounds for the treatment hereof” (Rigshospitalet, priority 2008, dated 2016)
